According to patent publication US12551475B2, “Methods and compositions for treating RNA viral infections” (Model Medicines, Inc., priority 2020, dated 2026):
Structures can show the parent of a compound that is named as a salt. Where two headings read alike, the source gives them in different places.

Legend:
SARS-CoV-2 [1] = conditions: ReFRAME screen, same methods (Bakowski et al, 2020); cited from earlier work
[2] = Uninfected host cell cytotoxicity counter screen; format: cell-based, human; conditions: human, uninfected HeLa-ACE2 cells; uninfected HeLa-ACE2, 24 h
Method: Compounds were acoustically transferred into 1,536-well clear plates (Greiner Part. No. 789091). HeLa-ACE2 cells were maintained as described for the infection assay and seeded in the assay-ready plates at 400 cells/well in DMEM with 2% FBS and plates were incubated for 24 hours at 37 5% CO2. To assess cell viability, the Image-iT DEAD green reagent (Thermo Fisher) was used according to manufacturer instructions. Cells were fixed with 4% paraformaldehyde, and counterstained with DAPI. Fixed cells were imaged using the ImageXpress Micro Confocal High-Content Imaging System (Molecular Devices) with a 10× objective, and total live cells per well quantified in the acquired images using the Live Dead Application Module (MetaXpress).
Image analysis was carried out with MetaXpress (version 6.5.4.532). Primary in vitro screen and the host cell cytotoxicity counter screen data were uploaded to Genedata Screener, Version 16.0.3-Standard. Data were normalized to neutral (DMSO) […] inhibitor controls (2.5 μM remdesivir for antiviral effect and 10 μM puromycin for infected host cell toxicity). For the uninfected host cell cytotoxicity counter screen 40 μM puromycin (Sigma) was used as the positive control. For dose response experiments compounds were tested in technical triplicates on different assay plates and dose curves were fitted with the four parameter Hill Equation. Technical replicate data were analyzed using median condensing.

SARS-CoV-2 [3] = test system: SARS-CoV-2
SARS-CoV-2 [4] = assay: microbe, parasite or virus in culture
[5] = in vivo; cited from earlier work
[6] = biological target: lysophosphatidic acyl transferase (LPAAT); conditions: cytokine-activated LPAAT; read-out: IC50 (generation of phosphatidic acid); cited from earlier work
cancer cell lines = conditions: cited from earlier work
[7] = test system: B-RAFV^600E-expressing A375P melanoma cells; conditions: cited from earlier work
[8] = test system: wild-type B-RAF-expressing human foreskin fibroblasts; conditions: cited from earlier work
HeLa cells = conditions: read-out: IC50 (apoptosis); cited from earlier work
thymocytes = conditions: read-out: IC50 (apoptosis); cited from earlier work
MCF-7 cell line = conditions: read-out: IC50 (antitumor activity in vitro); cited from earlier work
Renal 1983 cell line = conditions: read-out: IC50 (antitumor activity in vitro); cited from earlier work
[9] = biological target: 3CL Protease (SARS-CoV-2) (Severe acute respiratory syndrome coronavirus 2, UniProt P0DTD1); assay: 3CL Protease (untagged, SARS-CoV-2) activity assay; format: biochemical
Source text: The 3CL Protease Activity Assay described in this example is designed to measure 3CL Protease activity for screening and profiling applications, in a homogeneous assay with no time-consuming washing steps. The assay can be performed in a 96-well format, with purified untagged 3CL Protease, fluorogenic substrate, and 3CL Protease assay buffer for 100 enzyme reactions. 3CL inhibitor GC376 was included as a positive control. See https://bpsbioscience.com/3cl-protease-intagged-sars-cov-2-assay-kit-78042.
3CL Protease (SARS-CoV-2), no tag*; 3CL Protease Substrate (10 mM); 3CL Protease Assay Buffer; GC376, MW=507.5; 0.5 M DTT; Black, low binding microtiter plate; Plate sealing film. Fluorescent microplate reader capable of reading exc/em=360 nm/460 nm
All Samples and Controls were Tested in Duplicate.
• 1) Added 0.5 M DTT to 3CL Protease Assay Buffer so final DTT concentration was 1 mM. (e.g., added 10 μl of 0.5 M DTT to 5 ml assay buffer) (DTT was added just before use. Enough DTT-containing buffer as required for the assay was prepared. Remaining assay buffer was stored at −20° C.). • 2) Thaw 3CL Protease was thawed on ice. Upon first thaw, tube containing enzyme was briefly spun to recover the full content of the tube. Aliquoted 3CL Protease into single use aliquots. Stored remaining undiluted enzyme in aliquots at −80° C. • 3) Diluted 3CL Protease in Assay buffer (with 1 mM DTT) at 0.5 ng/μl (15 ng per reaction). • 4) Added 30 μl diluted 3CL Protease enzyme solution to wells designated as “Positive Control”, “Inhibitor Control” and “Test Sample”. Added 30 μl Assay buffer (with 1 mM DTT) to the “Blank” wells.
• 5) Diluted 50 μg GC376 in 200 μl water to obtain a 500 μM solution. Aliquoted and stored remaining solution in aliquots at −80° C. Added 10 μl GC376 (500 μM) to the wells labeled “Inhibitor Control”. • 6) Prepared the inhibitor solution.
(If the inhibitor compound was dissolved in DMSO, made a 100-fold higher concentration of the compound than the highest concentration tested in DMSO. Then made a 20-fold dilution in 1× assay buffer (at this step the compound concentration is 5-fold higher than the final concentration)).
If the inhibitor compound is dissolved in water, made a solution of the compound 5-fold higher than the final concentration in 3CL Protease assay buffer (with 1 mM DTT). For example, diluting 50 μg GC376 in 200 μl water (step 5) creates a 500 μM solution. Adding 10 μl to the assay (final volume 50 μl) results in a 100 μM final concentration.
7) Added 10 μl inhibitor to each well designated “Test Sample”. Added 10 μl 1× assay buffer or 5% DMSO in water (depending on which inhibitor solution is used) to “Blank” and “Positive Control” wells. • 8) Preincubated enzyme with the inhibitor for 30 min at room temperature with slow shaking. • 9) Diluted 10 mM 3CL Protease substrate 1:50 in assay buffer with DTT, to make a 200 μM solution. Diluted only enough as was required for the assay. • 10) Started reaction by adding 10 μl of the substrate solution to each well (Final concentration of the 3CL Protease substrate in a 50 μl reaction was 40 μM). • 11) Incubated for 4 hours at room temperature with slow shaking. Sealed the plate with the plate sealer. Measured the fluorescence intensity in a microtiter plate-reading fluorimeter capable of excitation at a wavelength 360 nm and detection of emission at a wavelength 460 nm. The fluorescence intensity can also be measured kinetically. “Blank” value was subtracted from all other values. Data Analysis
3CL Protease activity assays were performed in duplicates. The fluorescence data were analyzed using the computer software, Graphpad Prism. In the absence of the compound, the fluorescence (Ft) in each data set was defined as 100% activity. In the absence of the 3CL Protease, the fluorescence (Fb) in each data set was defined as 0% activity. […]

[10] = Severe acute respiratory syndrome coronavirus 2, HeLa-ACE2, 24 h

In the case of `O=C(c1ccc(OCCN2CCCCC2)cc1)c1c(-c2ccc(O)cc2)sc2cc(O)ccc12` [raloxifene], the EC50 (SARS-CoV-2 [1]) is listed as 4.13 µM.
With `Cc1c2c(nn1C)CSCc1cc(n(C)n1)CSc1cc(c3ccccc3c1)OCCCc1c(C(=O)O)n(C)c3c-2c(Cl)ccc13` [AZD-5991] the CC50 at 24 h [2] was 0.527 µM, the “SI (selectivity index, CC50/EC50)” value (SARS-CoV-2 [3]) was 0.06 and the “activity in the HeLa-ACE2 cell-based SARS-CoV-2 assay (in words)” value (SARS-CoV-2 [3]) was “demonstrated activity”. The EC50 (SARS-CoV-2 [4]; [10]) was 8.81 µM.
In the case of `Nc1ncnc2c1nc(Cl)n2[C@@H]1O[C@@H]2COP(=O)(O)O[C@H]2[C@H]1O` [Tocladesine, 8-chloroadenosine 3′,5′-monophosphate], the CC50 at 24 h [2] is reported as over 39.8 µM, the “SI (selectivity index, CC50/EC50)” value (SARS-CoV-2 [3]) is reported as over 4.15 and the “activity in the HeLa-ACE2 cell-based SARS-CoV-2 assay (in words)” value (SARS-CoV-2 [3]) is reported as “active against COVID-19”. The “activity in the HeLa-ACE2 cell-based SARS-CoV-2 assay (in words)” value (SARS-CoV-2 [3]; listed as tocladesine) was “demonstrated activity” and the EC50 (SARS-CoV-2 [4]; [10]) was over 9.59 µM.
For `CCC(CC)COC(=O)[C@H](C)N[P@](=O)(OC[C@H]1O[C@@](C#N)(c2ccc3c(N)ncnn23)[C@H](O)[C@@H]1O)Oc1ccccc1` [Remdesivir], the “increase in EC50 from MOI=1 to MOI=26” value (SARS-CoV-2 [3]) is given as 2.7 fold, the “half-life (t 1/2)” value [5] is given as 1 h and the EC50 (SARS-CoV-2 [4]; [10]) is given as 0.13 µM.
In the case of `C[C@@H](O)CCCCn1c(=O)c2c(ncn2C)n(C)c1=O` [(R)-LSF, 3,7-dihydro-1-[(5R)-5-hydroxyhexyl]-3,7-dimethyl-1H-purine-2,6-dione], the IC50 [6] is listed as 0.6 µM.
In the case of `CC(C)(C)c1nc(-c2cccc(NS(=O)(=O)c3c(F)cccc3F)c2F)c(-c2ccnc(N)n2)s1` [Dabrafenib, N-[3-[5-(2-amino-4-pyrimidinyl)-2-(1,1-dimethylethyl)-4-thiazolyl]-2-fluorophenyl]-2,6-difluorobenzenesulfonamide], the GI50 (cancer cell lines; 16 cancer cell lines expressing mutant B-RAFV600E) is given as under 0.2 µM, the GI50 (cancer cell lines; 19 cell lines expressing wild-type Ras and RAF) is given as under 7 µM and the GI50 (cancer cell lines; five cell lines expressing other B-RAF mutants) is given as under 0.03 µM. The GI50 (cancer cell lines; four B-RAFV600E lines, 133 wild-type Ras and Raf lines, 18 mutant Ras lines not inhibited) was over 10 µM, the “EC200 (caspase-3/7 activation)” value [7] was 71 nM and the “EC200 (caspase-3/7 activation)” value [8] was > 10,000 nM.
In the case of `COc1ccc2c(c1OC)C(=O)O[C@@H]2[C@H]1c2c(cc3c(c2OC)OCO3)CCN1C` [Noscapine, (3S)-6,7-dimethoxy-3-[(5R)-5,6,7,8-tetrahydro-4-methoxy-6-methyl-1,3-dioxolo[4,5-g]isoquinolin-5-yl]-1(3H)-isobenzofuranone, monohydrochloride], the IC50 (HeLa cells) is given as 25 µM, the IC50 (thymocytes) is given as 10 µM and the IC50 (MCF-7 cell line) is given as 42.3 µM. The IC50 (Renal 1983 cell line) was 39.1 µM.
For `Cc1cccc(/C=N/Nc2cc(N3CCOCC3)nc(OCCc3ccccn3)n2)c1` [apilimod], the “increase in EC50 from MOI=1 to MOI=26” value (SARS-CoV-2 [3]) was 3.7 fold and the Emax (SARS-CoV-2 [4]; Severe acute respiratory syndrome coronavirus 2, HeLa-ACE2, read-out: maximal efficacy (uninfected cells at the highest effective concentrations)) was 85 to 90%.
`COc1ccc(C[C@H](N)C(=O)N[C@H]2[C@@H](O)[C@H](n3cnc4c(N(C)C)ncnc43)O[C@@H]2CO)cc1` [puromycin] showed an EC50 (SARS-CoV-2 [4]; Severe acute respiratory syndrome coronavirus 2, HeLa-ACE2, read-out: EC50 (total cell numbers per well, compound toxicity in the context of infection)) of 0.547 ± 0.027 µM.
With `COc1ccc2c3c1O[C@H]1C[C@@H](O)C=C[C@@]31CCN(C)C2` [Galantamine, (4aS,6R,8aS)-4a,5,9,10,11,12-hexahydro-3-methoxy-11-methyl-6H-benzofuro[3a,3,2-ef][2]benzazepin-6-ol] the “3CL Protease Activity (Fluorescence count) Repeat1” value ([9]; Galantamine 0.009 μM) was 759, the “3CL Protease Activity (Fluorescence count) Repeat2” value ([9]; Galantamine 0.009 μM) was 768 and the “3CL Protease Activity (Fluorescence count) Repeat1” value ([9]; Galantamine 0.018 μM) was 746. The “3CL Protease Activity (Fluorescence count) Repeat2” value ([9]; Galantamine 0.018 μM) was 752, the “3CL Protease Activity (Fluorescence count) Repeat1” value ([9]; Galantamine 0.070 μM) was 785 and the “3CL Protease Activity (Fluorescence count) Repeat2” value ([9]; Galantamine 0.070 μM) was 783. For the same compound, the “3CL Protease Activity (Fluorescence count) Repeat1” value ([9]; Galantamine 0.14 μM) was 737, the “3CL Protease Activity (Fluorescence count) Repeat2” value ([9]; Galantamine 0.14 μM) was 760 and the “3CL Protease Activity (Fluorescence count) Repeat1” value ([9]; Galantamine 0.28 μM) was 761. For the same compound, the “3CL Protease Activity (Fluorescence count) Repeat2” value ([9]; Galantamine 0.28 μM) was 797, the “3CL Protease Activity (Fluorescence count) Repeat1” value ([9]; Galantamine 4.5 μM) was 593 and the “3CL Protease Activity (Fluorescence count) Repeat2” value ([9]; Galantamine 4.5 μM) was 543. The activity at 0.009 µM ([9]; read-out: % Activity Repeat1) was 98%, the activity at 0.018 µM ([9]; read-out: % Activity Repeat1) was 96% and the activity at 0.07 µM ([9]; read-out: % Activity Repeat1) was 102%. It also gave an activity at 0.14 µM ([9]; read-out: % Activity Repeat1) of 95%, an activity at 0.28 µM ([9]; read-out: % Activity Repeat1) of 98% and an activity at 4.5 µM ([9]; read-out: % Activity Repeat1) of 74%. The activity at 0.009 µM ([9]; read-out: % Activity Repeat2) was 99%, the activity at 0.018 µM ([9]; read-out: % Activity Repeat2) was 97% and the activity at 0.07 µM ([9]; read-out: % Activity Repeat2) was 102%. The activity at 0.14 µM ([9]; read-out: % Activity Repeat2) was 98%, the activity at 0.28 µM ([9]; read-out: % Activity Repeat2) was 104% and the activity at 4.5 µM ([9]; read-out: % Activity Repeat2) was 66%. For the same compound, the “effect on 3CL Protease activity (in words)” value ([9]; test range 0.009-4.5 μM) was “inhibited 3CL Protease activity”.
